The values below come from patent US20020183309A1, “Novel amines as histamine-3 receptor ligands and their therapeutic applications” (priority 2001, published 2002).

The target in the first experiment is T1, histamine-3 receptors (H3 receptor) (Rattus norvegicus, UniProt Q9QYN8).
T1 construct: from tissue; host or cells: male Sprague-Dawley rat brain cortex membranes
T1 sequence (Q9QYN8 whole entry): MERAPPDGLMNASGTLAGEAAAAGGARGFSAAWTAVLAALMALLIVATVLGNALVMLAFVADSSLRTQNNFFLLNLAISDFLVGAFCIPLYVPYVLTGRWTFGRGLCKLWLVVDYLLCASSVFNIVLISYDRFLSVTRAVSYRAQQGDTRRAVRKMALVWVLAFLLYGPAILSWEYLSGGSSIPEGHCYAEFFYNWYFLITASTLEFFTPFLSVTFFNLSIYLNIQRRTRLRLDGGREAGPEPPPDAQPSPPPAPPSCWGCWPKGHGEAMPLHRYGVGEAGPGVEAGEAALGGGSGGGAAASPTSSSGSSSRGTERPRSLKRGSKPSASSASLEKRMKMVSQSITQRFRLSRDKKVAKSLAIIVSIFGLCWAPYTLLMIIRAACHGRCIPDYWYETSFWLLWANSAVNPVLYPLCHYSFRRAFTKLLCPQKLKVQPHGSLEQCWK
Put plainly: (3H)-N-α-methylhistamine binding to rat cortical membranes.
Settings: not given
As to the method: Briefly, male Sprague-Dawley rat brain cortices were homogenized (1 g tissue/10 mL buffer) in 50 mM Tris-HCl/5 mM EDTA containing protease inhibitor cocktail (Calbiochem) using a polytron set at 20,500 rpm. Homogenates were centrifuged for 20 minutes at 40,000×g. The supernatant was decanted, and pellets were weighed. The pellet was resuspended by polytron homogenization in 40 mL 50 mM Tris-HCl/5 mM EDTA with protease inhibitors and centrifuged for 20 minutes at 40,000×g. […] Rat cortical membranes (12 mg wet weight/tube) were incubated with (^3H)-N-α-methylhistamine (˜0.6 nM) with or without H3 receptor antagonists in a total incubation volume of 0.5 mL of 50 mM Tris-HCl/5 mM EDTA (pH 7.7). Test compounds were dissolved in DMSO to provide a 20 mM solution, serially diluted and then added to the incubation mixtures prior to initiating the incubation assay by addition of the membranes. Thioperamide (3 μM) was used to determine nonspecific binding. Binding incubations were conducted for 30 minutes at 25° C. and terminated by addition of 2 mL of ice cold 50 mM Tris-HCl (pH 7.7) and filtration through 0.3% polyethylenimine-soaked Unifilter plates (Packard). These filters were washed 4 additional times with 2 mL of ice-cold 50 mM Tris-HCl and dried for 1 hour. Radioactivity was determined using liquid scintillation counting techniques. Results were analyzed by Hill transformation and Ki values were determined using the Cheng-Prusoff equation.
In general, Ki refers to a measure of affinity in units of concentration, obtained from inhibition or displacement. On to `CN(C)[C@H]1CCN(CCc2cc3cc(-c4ccc(C#N)cc4)ccc3o2)C1` [Example 9, 4-(2-{2-[(3S)-3-(dimethylamino)pyrrolidinyl]ethyl}-1-benzofuran-5-yl)benzonitrile], for which the Ki came to 136 nM.

The same experiment, now with this note: male Sprague-Dawley rat brain cortical membranes; (3H)-N-α-methylhistamine ~0.6 nM; 30 minutes at 25° C.; Cheng-Prusoff equation; read-out: Ki.
Take “4-(2-{2-[(2R,6S)-2,6-dimethylpiperidinyl]ethyl}-1-benzofuran-5-yl)benzonitrile [Example 11]”: the Ki stood at 19.3 nM.

On to “4-[4-(2-{2-[(2R,6S)-2,6-dimethylpiperidinyl]ethyl}-1-benzofuran-5-yl)benzoyl]morpholine [Example 29]”, for which the Ki was 8.46 nM.

For `CCN(CC)CCc1cc2cc(-c3ccc(C#N)cc3)ccc2o1` [Example 5, 4-{2-[2-(diethylamino)ethyl]-1-benzofuran-5-yl}benzonitrile], the Ki was 49.4 nM.

As for `N#Cc1ccc(-c2ccc3oc(CCN4CC[C@@H](O)C4)cc3c2)cc1` [Example 7, 4-(2-{2-[(3R)-3-hydroxypyrrolidinyl]ethyl}-1-benzofuran-5-yl)benzonitrile], the inhibition constant (Ki) worked out at 94.9 nM.

Regarding `C[C@@H]1CC[C@@H](C)N1CCc1cc2cc(-c3ccc(C#N)cc3)ccc2o1` [Example 12, 4-(2-{2-[(2R,5R)-2,5-dimethylpyrrolidinyl]ethyl}-1-benzofuran-5-yl)benzonitrile], the Ki was 38.4 nM.

For the compound `CC1CCN(CCc2cc3cc(-c4ccc(C#N)cc4)ccc3o2)CC1` [Example 14, 4-{2-[2-(4-methyl-1-piperidinyl)ethyl]-1-benzofuran-5-yl}benzonitrile], the Ki stood at 25.1 nM.

`COC(=O)[C@@H]1CCCN1CCc1cc2cc(-c3ccc(C#N)cc3)ccc2o1` [Example 15, 4-(2-{2-[2-pyrrolidinemethyl carboxylate]ethyl}-1-benzofuran-5-yl)benzonitrile]: the Ki turned out to be 1000 nM.

For the compound `N#Cc1ccc(-c2ccc3oc(CCN4CC=CCC4)cc3c2)cc1` [Example 16, 4-{2-[2-(3,6-dihydro-1(2H)-pyridinyl)ethyl]-1-benzofuran-5-yl}benzonitrile], the Ki came to 92.2 nM.

Take `CN(CCc1cc2cc(-c3ccc(C#N)cc3)ccc2o1)C(C)(C)C` [Example 18, 4-(2-{2-[tert-butyl (methyl)amino]ethyl}-1-benzofuran-5-yl)benzonitrile]: the Ki amounted to 60.5 nM.

In the case of `CC(C)N(C)CCc1cc2cc(-c3ccc(C#N)cc3)ccc2o1` [Example 19, 4-(2-{2-[isopropyl(methyl)amino]ethyl}-1-benzofuran-5-yl)benzonitrile], the Ki was determined as 77.7 nM.

Turning to `CC(C)CN(C)CCc1cc2cc(-c3ccc(C#N)cc3)ccc2o1` [Example 20, 4-(2-{2-[isobutyl(methyl)amino]ethyl}-1-benzofuran-5-yl)benzonitrile], the Ki is 180 nM.

On to `CCN(CCc1cc2cc(-c3ccc(C#N)cc3)ccc2o1)C(C)C` [Example 21, 4-(2-{2-[ethyl(isopropyl)amino]ethyl}-1-benzofuran-5-yl)benzonitrile], for which the Ki stood at 44.4 nM.

For `CCCN(CC)CCc1cc2cc(-c3ccc(C#N)cc3)ccc2o1` [Example 22, 4-(2-{2-[ethyl(propyl)amino]ethyl}-1-benzofuran-5-yl)benzonitrile], the Ki came out at 69.2 nM.

For `CC1CCCN1CCc1cc2cc(-c3ccc(C(=O)N4CCOCC4)cc3)ccc2o1` (stereo not shown) [Example 23, 4-(4-{2-[2-(2-methyl-1-pyrrolidinyl)ethyl]-1-benzofuran-5-yl}benzoyl)morpholine], the Ki amounted to 1.97 nM.

For the compound `O=C(c1ccc(-c2ccc3oc(CCN4CCCCC4)cc3c2)cc1)N1CCOCC1` [Example 24, 4-(4-{2-[2-(1-piperidinyl)ethyl]-1-benzofuran-5-yl}benzoyl)morpholine], the inhibitory constant (Ki) is 11.7 nM.

On to `CCN(CC)CCc1cc2cc(-c3ccc(C(=O)N4CCOCC4)cc3)ccc2o1` [Example 25, N,N-diethyl-N-(2-{5-[4-(4-morpholinylcarbonyl)phenyl]-1-benzofuran-2-yl}ethyl)amine], for which the Ki came to 14.4 nM.

As to `CC1CCCCN1CCc1cc2cc(-c3ccc(C(=O)N4CCOCC4)cc3)ccc2o1` (stereo not shown) [Example 26, 4-(4-{2-[2-(2-methyl1--piperidinyl)ethyl]-1-benzofuran-5-yl}benzoyl)morpholine], the Ki was determined as 27.2 nM.

On to `O=C(c1ccc(-c2ccc3oc(CCN4CC[C@@H](O)C4)cc3c2)cc1)N1CCOCC1` [Example 27, (3R)-1-(2-{5-[4-(4-morpholinylcarbonyl)phenyl]-1-benzofuran-2-yl}ethyl)-3-pyrrolidinol], for which the Ki is 55.4 nM.

As to `O=C(c1ccc(-c2ccc3oc(CCN4CCOCC4)cc3c2)cc1)N1CCOCC1` [Example 32, 4-(4-{2-[2-(4-morpholine)ethyl]-1-benzofuran-5-yl}benzoyl)morpholine], the inhibition constant Ki is 265 nM.

Turning to `O=C(c1ccc(-c2ccc3oc(CCN4CC=CCC4)cc3c2)cc1)N1CCOCC1` [Example 33, 4-(4-{2-[2-(3,6-dihydro-1(2H)-pyridinyl)ethyl]-1-benzofuran-5-yl}benzoyl)morpholine], the Ki is 32.3 nM.

For the compound `CN(CCc1cc2cc(-c3ccc(C(=O)N4CCOCC4)cc3)ccc2o1)C(C)(C)C` [Example 35, N-(tert-butyl)-N-methyl-N-(2-{5-[4-(4-morpholinylcarbonyl)phenyl]-1-benzofuran-2-yl}ethyl)amine], the Ki was 67.9 nM.

Regarding `CC(C)N(C)CCc1cc2cc(-c3ccc(C(=O)N4CCOCC4)cc3)ccc2o1` [Example 36, N-isopropyl-N-methyl-N-(2-{5-[4-(4-morpholinylcarbonyl)phenyl]-1-benzofuran-2-yl}ethyl)amine], the Ki came out at 52.1 nM.

For `CC(C)CN(C)CCc1cc2cc(-c3ccc(C(=O)N4CCOCC4)cc3)ccc2o1` [Example 37, N-isobutyl-N-methyl-N-(2-{5-[4-(4-morpholinylcarbonyl)phenyl]-1-benzofuran-2-yl}ethyl)amine], the inhibition constant Ki is 248 nM.

Take `CCN(CCc1cc2cc(-c3ccc(C(=O)N4CCOCC4)cc3)ccc2o1)C(C)C` [Example 38, N-ethyl-N-isopropyl-N-(2-{5-[4-(4-morpholinylcarbonyl)phenyl]-1-benzofuran-2-yl}ethyl)amine]: the Ki worked out at 26 nM.

As to `CN(C)CCc1cc2cc(-c3ccc(C(=O)N4CCOCC4)cc3)ccc2o1` [Example 39, N,N-dimethyl-N-(2-{5-[4-(4-morpholinylcarbonyl)phenyl]-1-benzofuran-2-yl}ethyl)amine], the Ki worked out at 148 nM.

As for `CCCN(CC)CCc1cc2cc(-c3ccc(C(=O)N4CCOCC4)cc3)ccc2o1` [Example 40, N-ethyl-N-(2-{5-[4-(4-morpholinylcarbonyl)phenyl]-1-benzofuran-2-yl}ethyl)-N-propylamine], the Ki stood at 32.2 nM.

Take `Cc1c(CCN2CCCC2)c(=O)oc2ccc(-c3ccc(C#N)cc3)cc12` [Example 41, 4-{4-methyl-2-oxo-3-[2-(1-pyrolidinyl)ethyl]-2H-chromen-6-yl}benzonitrile]: the Ki was determined as 51.5 nM.

`Cc1c(CCN2CCCCC2)c(=O)oc2ccc(-c3ccc(C#N)cc3)cc12` [Example 42, 4-{4-methyl-2-oxo-3-[2-(1-piperidinyl)ethyl]-2H-chromen-6-yl}benzonitrile]: the Ki was 41.8 nM.

On to `CCN(CC)CCc1c(C)c2cc(-c3ccc(C#N)cc3)ccc2oc1=O` [Example 43, 4-{3-[2-(diethylamino)ethyl]-4-methyl-2-oxo-2H-chromen-6-yl}benzonitrile], for which the Ki was determined as 14.6 nM.

Turning to `O=C(c1ccc(-c2ccc3oc(CCN4CCCC4)cc3c2)nc1)N1CCOCC1` [Example 44, 4-[(6-{2-[2-(1-pyrrolidinyl)ethyl]-1-benzofuran-5-yl}-3-pyridinyl)carbonyl]morpholine], the Ki is 17.2 nM.

For the compound `O=C(c1ccc(-c2ccc3oc(CCN4CCCCC4)cc3c2)nc1)N1CCOCC1` [Example 46, 4-[(6-{2-[2-(1-piperidinyl)ethyl]-1-benzofuran-5-yl}-3-pyridinyl)carbonyl]morpholine], the Ki turned out to be 18.5 nM.

As for `CCN(CC)CCc1cc2cc(-c3ccc(C(=O)N4CCOCC4)cn3)ccc2o1` [Example 47, 4-[(6-{2-[2-(N,N-diethyl)ethyl]-1-benzofuran-5-yl}-3-pyridinyl)carbonyl]morpholine], the Ki came to 59.8 nM.

Turning to `C[C@@H]1CC[C@@H](C)N1CCc1cc2cc(-c3ccc(C(=O)N4CCOCC4)cn3)ccc2o1` [Example 49, 4-{[6-(2-{2-[(2R,5R)-2,5-dimethylpyrrolidinyl]ethyl}-1-benzofuran-5-yl)-3-pyridinyl]carbonyl}morpholine], the Ki came out at 14.4 nM.

As to `O=C(c1ccc(-c2ccc3oc(CCN4CCCCCC4)cc3c2)nc1)N1CCOCC1` [Example 51, 4-{[6-(2-{2-[1-azepanyl]ethyl}-1-benzofuran-5-yl)-3-pyridinyl]carbonyl}morpholine], the Ki came out at 3.07 nM.

`CC1CCN(CCc2cc3cc(-c4ccc(C(=O)N5CCOCC5)cn4)ccc3o2)CC1` [Example 52, 4-[(6-{2-[2-(4-methyl-1-piperidinyl)ethyl]-1-benzofuran-5-yl}-3-pyridinyl)carbonyl]morpholine]: the Ki is 162 nM.

Regarding `O=C(c1ccc(-c2ccc3oc(CCN4CCOCC4)cc3c2)nc1)N1CCOCC1` [Example 53, 4-[(6-{2-[2-(4-morpholinyl)ethyl]-1-benzofuran-5-yl}-3-pyridinyl)carbonyl]morpholine], the Ki turned out to be 242 nM.
